Experimental findings from patent US8999940B2 (Ipsen Pharma S.A.S., priority 2008, dated 2015) are described below.

Where only a bound is given, the exact number is not on record here.

A short description of data set [1]: Human plasma half-life assay. Type of data set: in vitro ADME. To be noted: 37° C., LC-MS, read-out: Human Plasma T½ (converted).
A short description of data set [2]: Rat plasma half-life assay. To be noted: 37° C., LC-MS, read-out: Rat Plasma T½ (converted). It counts as in vitro ADME.
The target of data set [3] is T1, human recombinant GIP receptor (Homo sapiens, UniProt P48546).
T1 construct: expressed in transfected cells; host or cells: CHO-K1 clonal cells (membrane preparation)
T1 sequence (P48546 22-466): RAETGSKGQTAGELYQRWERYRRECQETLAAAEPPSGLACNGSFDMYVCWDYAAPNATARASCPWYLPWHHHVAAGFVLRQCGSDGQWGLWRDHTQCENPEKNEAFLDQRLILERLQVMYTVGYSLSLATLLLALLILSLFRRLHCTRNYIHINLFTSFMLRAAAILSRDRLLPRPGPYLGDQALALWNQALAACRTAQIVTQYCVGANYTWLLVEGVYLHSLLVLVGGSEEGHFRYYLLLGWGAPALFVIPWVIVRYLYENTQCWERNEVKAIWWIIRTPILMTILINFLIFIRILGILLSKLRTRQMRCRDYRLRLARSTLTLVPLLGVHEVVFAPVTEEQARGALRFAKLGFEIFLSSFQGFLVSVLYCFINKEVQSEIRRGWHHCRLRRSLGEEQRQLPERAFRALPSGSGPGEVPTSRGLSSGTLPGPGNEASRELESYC
The experiment in a line: In vitro hGIP receptor binding assay. The protocol: A. In Vitro hGIP Receptor Binding Assay […] The incubations were terminated by rapid filtration through GF/C filters (pre-soaked in 0.5% polyethylenimine) using a Brandel filtration manifold. Each tube and filter were then washed three times with 5-ml aliquots of ice-cold buffer.

Broadly, the Ki is the equilibrium dissociation constant of an inhibitor or competing ligand from its target.

As to `CCCC[C@H](NC(=O)[C@H](C)NC(=O)[C@@H](NC(=O)C1(NC(=O)[C@H](Cc2ccc(O)cc2)NC(=O)[C@H](CC(=O)O)NC(=O)[C@H](CO)NC(=O)[C@@H](NC(=O)[C@H](Cc2ccccc2)NC(=O)[C@@H](NC(=O)CNC(=O)[C@H](CCC(=O)O)NC(=O)C(C)(C)NC(=O)[C@@H](N)Cc2ccc(N)cc2)[C@@H](C)O)[C@@H](C)CC)CCCC1)[C@@H](C)CC)C(=O)N[C@@H](CC(=O)O)C(=O)N[C@@H](CCCCN)C(=O)N[C@H](C(=O)N[C@@H](Cc1c[nH]cn1)C(=O)N[C@@H](CCC(N)=O)C(=O)N[C@@H](CCC(N)=O)C(=O)N[C@@H](CC(=O)O)C(=O)N[C@@H](Cc1ccccc1)C(=O)N[C@H](C(=O)N[C@@H](CC(N)=O)C(=O)N[C@@H](Cc1c[nH]c2ccccc12)C(=O)N[C@@H](CC(C)C)C(=O)N[C@@H](CC(C)C)C(=O)N[C@@H](C)C(=O)N[C@@H](CCC(N)=O)C(=O)N[C@@H](CCCCN)C(=O)NCC(=O)N[C@@H](CCCCN)C(=O)N[C@@H](CCCCN)C(=O)N[C@@H](CC(N)=O)C(=O)N[C@@H](CC(=O)O)C(=O)N[C@@H](Cc1c[nH]c2ccccc12)C(=O)N[C@@H](CCCCN)C(=O)N[C@@H](Cc1c[nH]cn1)C(=O)N[C@@H](CC(N)=O)C(=O)N[C@H](C(=O)N[C@H](C(=O)N[C@@H](CCC(N)=O)C(=O)O)[C@@H](C)O)[C@@H](C)CC)C(C)C)[C@@H](C)CC` [Example 18, (4NH2-Phe^1, Aib^2, A5c^11, Nle^14)hGIP(1-42)-OH], the values for the half-life at 0.1 mg/ml in data set [1] and in data set [2] were greater than 72 h and 32.1 h, respectively. For the same compound, the inhibition constant (Ki) in data set [3] was 3.4 nM.

Regarding `CCCC[C@H](NC(=O)[C@H](C)NC(=O)[C@@H](NC(=O)C1(NC(=O)[C@H](Cc2ccc(O)cc2)NC(=O)[C@H](CC(=O)O)NC(=O)[C@H](CO)NC(=O)[C@@H](NC(=O)[C@H](Cc2ccccc2)NC(=O)[C@@H](NC(=O)CNC(=O)[C@H](CCC(=O)O)NC(=O)C(C)(C)NC(=O)[C@@H](N)Cc2ccc(O)c(Br)c2)[C@@H](C)O)[C@@H](C)CC)CCCC1)[C@@H](C)CC)C(=O)N[C@@H](CC(=O)O)C(=O)N[C@@H](CCCCN)C(=O)N[C@H](C(=O)N[C@@H](Cc1c[nH]cn1)C(=O)N[C@@H](CCC(N)=O)C(=O)N[C@@H](CCC(N)=O)C(=O)N[C@@H](CC(=O)O)C(=O)N[C@@H](Cc1ccccc1)C(=O)N[C@H](C(=O)N[C@@H](CC(N)=O)C(=O)N[C@@H](Cc1c[nH]c2ccccc12)C(=O)N[C@@H](CC(C)C)C(=O)N[C@@H](CC(C)C)C(=O)N[C@@H](C)C(=O)N[C@@H](CCC(N)=O)C(=O)N[C@@H](CCCCN)C(=O)NCC(=O)N[C@@H](CCCCN)C(=O)N[C@@H](CCCCN)C(=O)N[C@@H](CC(N)=O)C(=O)N[C@@H](CC(=O)O)C(=O)N[C@@H](Cc1c[nH]c2ccccc12)C(=O)N[C@@H](CCCCN)C(=O)N[C@@H](Cc1c[nH]cn1)C(=O)N[C@@H](CC(N)=O)C(=O)N[C@H](C(=O)N[C@H](C(=O)N[C@@H](CCC(N)=O)C(=O)O)[C@@H](C)O)[C@@H](C)CC)C(C)C)[C@@H](C)CC` [Example 15, (3Br-Tyr^1, Aib^2, A5c^11, Nle^14)hGIP(1-42)-OH], the figures for the half-life at 0.1 mg/ml in data set [1] and in data set [2] were 50.6 h and 22.9 h, respectively. Moreover, in data set [3], the Ki was 0.6 nM.

Regarding `CCCC[C@H](NC(=O)[C@H](C)NC(=O)[C@@H](NC(=O)C1(NC(=O)[C@H](Cc2ccc(O)cc2)NC(=O)[C@H](CC(=O)O)NC(=O)[C@H](CO)NC(=O)[C@@H](NC(=O)[C@H](Cc2ccccc2)NC(=O)[C@@H](NC(=O)CNC(=O)[C@H](CCC(=O)O)NC(=O)C(C)(C)NC(=O)[C@@H](N)Cc2cc(F)cc(F)c2)[C@@H](C)O)[C@@H](C)CC)CCCC1)[C@@H](C)CC)C(=O)N[C@@H](CC(=O)O)C(=O)N[C@@H](CCCCN)C(=O)N[C@H](C(=O)N[C@@H](Cc1c[nH]cn1)C(=O)N[C@@H](CCC(N)=O)C(=O)N[C@@H](CCC(N)=O)C(=O)N[C@@H](CC(=O)O)C(=O)N[C@@H](Cc1ccccc1)C(=O)N[C@H](C(=O)N[C@@H](CC(N)=O)C(=O)N[C@@H](Cc1c[nH]c2ccccc12)C(=O)N[C@@H](CC(C)C)C(=O)N[C@@H](CC(C)C)C(=O)N[C@@H](C)C(=O)N[C@@H](CCC(N)=O)C(=O)N[C@@H](CCCCN)C(=O)NCC(=O)N[C@@H](CCCCN)C(=O)N[C@@H](CCCCN)C(=O)N[C@@H](CC(N)=O)C(=O)N[C@@H](CC(=O)O)C(=O)N[C@@H](Cc1c[nH]c2ccccc12)C(=O)N[C@@H](CCCCN)C(=O)N[C@@H](Cc1c[nH]cn1)C(=O)N[C@@H](CC(N)=O)C(=O)N[C@H](C(=O)N[C@H](C(=O)N[C@@H](CCC(N)=O)C(=O)O)[C@@H](C)O)[C@@H](C)CC)C(C)C)[C@@H](C)CC` [Example 25, (3,5F-Phe^1, Aib^2, A5c^11, Nle^14)hGIP(1-42)-OH], the half-life at 0.1 mg/ml in data set [1] and in data set [2] was greater than 74 h in each case. Also, the Ki in data set [3] was 26 nM.

Consider `CCCC[C@H](NC(=O)[C@H](C)NC(=O)[C@@H](NC(=O)C1(NC(=O)[C@H](Cc2ccc(O)cc2)NC(=O)[C@H](CC(=O)O)NC(=O)[C@H](CO)NC(=O)[C@@H](NC(=O)[C@H](Cc2ccccc2)NC(=O)[C@@H](NC(=O)CNC(=O)[C@H](CCC(=O)O)NC(=O)C(C)(C)NC(=O)[C@@H](N)Cc2ccc(Cl)cc2)[C@@H](C)O)[C@@H](C)CC)CCCC1)[C@@H](C)CC)C(=O)N[C@@H](CC(=O)O)C(=O)N[C@@H](CCCCN)C(=O)N[C@H](C(=O)N[C@@H](Cc1c[nH]cn1)C(=O)N[C@@H](CCC(N)=O)C(=O)N[C@@H](CCC(N)=O)C(=O)N[C@@H](CC(=O)O)C(=O)N[C@@H](Cc1ccccc1)C(=O)N[C@H](C(=O)N[C@@H](CC(N)=O)C(=O)N[C@@H](Cc1c[nH]c2ccccc12)C(=O)N[C@@H](CC(C)C)C(=O)N[C@@H](CC(C)C)C(=O)N[C@@H](C)C(=O)N[C@@H](CCC(N)=O)C(=O)N[C@@H](CCCCN)C(=O)NCC(=O)N[C@@H](CCCCN)C(=O)N[C@@H](CCCCN)C(=O)N[C@@H](CC(N)=O)C(=O)N[C@@H](CC(=O)O)C(=O)N[C@@H](Cc1c[nH]c2ccccc12)C(=O)N[C@@H](CCCCN)C(=O)N[C@@H](Cc1c[nH]cn1)C(=O)N[C@@H](CC(N)=O)C(=O)N[C@H](C(=O)N[C@H](C(=O)N[C@@H](CCC(N)=O)C(=O)O)[C@@H](C)O)[C@@H](C)CC)C(C)C)[C@@H](C)CC` [Example 20, (Cpa^1, Aib^2, A5c^11, Nle^14)hGIP(1-42)-OH], for which the half-life at 0.1 mg/ml was greater than 74 h in data set [1] and 24.3 h in data set [2]. In data set [3], the Ki was determined as 9.4 nM.

On to `CC[C@H](C)[C@H](NC(=O)[C@H](CCCCN)NC(=O)[C@H](CC(=O)O)NC(=O)[C@H](CCSC)NC(=O)[C@H](C)NC(=O)[C@@H](NC(=O)C1(NC(=O)[C@H](Cc2ccc(O)cc2)NC(=O)[C@H](CC(=O)O)NC(=O)[C@H](CO)NC(=O)[C@@H](NC(=O)[C@H](Cc2ccccc2)NC(=O)[C@@H](NC(=O)CNC(=O)[C@H](CCC(=O)O)NC(=O)C(C)(C)NC(=O)[C@@H](N)Cc2ccc(O)c(OC)c2)[C@@H](C)O)[C@@H](C)CC)CCCC1)[C@@H](C)CC)C(=O)N[C@@H](Cc1c[nH]cn1)C(=O)N[C@@H](CCC(N)=O)C(=O)N[C@@H](CCC(N)=O)C(=O)N[C@@H](CC(=O)O)C(=O)N[C@@H](Cc1ccccc1)C(=O)N[C@H](C(=O)N[C@@H](CC(N)=O)C(=O)N[C@@H](Cc1c[nH]c2ccccc12)C(=O)N[C@@H](CC(C)C)C(=O)N[C@@H](CC(C)C)C(=O)N[C@@H](C)C(=O)N[C@@H](CCC(N)=O)C(=O)N[C@@H](CCCCN)C(=O)NCC(=O)N[C@@H](CCCCN)C(=O)N[C@@H](CCCCN)C(=O)N[C@@H](CC(N)=O)C(=O)N[C@@H](CC(=O)O)C(=O)N[C@@H](Cc1c[nH]c2ccccc12)C(=O)N[C@@H](CCCCN)C(=O)N[C@@H](Cc1c[nH]cn1)C(=O)N[C@@H](CC(N)=O)C(=O)N[C@H](C(=O)N[C@H](C(=O)N[C@@H](CCC(N)=O)C(=O)N[C@@H](Cc1c[nH]cn1)C(=O)O)[C@@H](C)O)[C@@H](C)CC)C(C)C` [Example 73, (3MeO-Tyr^1, Aib^2, A5c^11, His^43)hGIP(1-43)-OH], for which the half-life at 0.1 mg/ml was 28.6 h in data set [1] and 11.8 h in data set [2]. Further, the Ki in data set [3] is 3.9 nM.

On to `CC[C@H](C)[C@H](NC(=O)[C@H](CCCCN)NC(=O)[C@H](CC(=O)O)NC(=O)[C@H](CCSC)NC(=O)[C@H](C)NC(=O)[C@@H](NC(=O)C1(NC(=O)[C@H](Cc2ccc(O)cc2)NC(=O)[C@H](CC(=O)O)NC(=O)[C@H](CO)NC(=O)[C@@H](NC(=O)[C@H](Cc2ccccc2)NC(=O)[C@@H](NC(=O)CNC(=O)[C@H](CCC(=O)O)NC(=O)C(C)(C)NC(=O)[C@@H](N)Cc2ccsc2)[C@@H](C)O)[C@@H](C)CC)CCCC1)[C@@H](C)CC)C(=O)N[C@@H](Cc1c[nH]cn1)C(=O)N[C@@H](CCC(N)=O)C(=O)N[C@@H](CCC(N)=O)C(=O)N[C@@H](CC(=O)O)C(=O)N[C@@H](Cc1ccccc1)C(=O)N[C@H](C(=O)N[C@@H](CC(N)=O)C(=O)N[C@@H](Cc1c[nH]c2ccccc12)C(=O)N[C@@H](CC(C)C)C(=O)N[C@@H](CC(C)C)C(=O)N[C@@H](C)C(=O)N[C@@H](CCC(N)=O)C(=O)N[C@@H](CCCCN)C(=O)NCC(=O)N[C@@H](CCCCN)C(=O)N[C@@H](CCCCN)C(=O)N[C@@H](CC(N)=O)C(=O)N[C@@H](CC(=O)O)C(=O)N[C@@H](Cc1c[nH]c2ccccc12)C(=O)N[C@@H](CCCCN)C(=O)N[C@@H](Cc1c[nH]cn1)C(=O)N[C@@H](CC(N)=O)C(=O)N[C@H](C(=O)NC1(C(=O)N[C@@H](CCC(N)=O)C(=O)O)CCCC1)[C@@H](C)CC)C(C)C` [Example 37, (3Thi^1, Aib^2, A5c^11, 41)hGIP(1-42)-OH], for which the half-life at 0.1 mg/ml in data set [1] was 29.3 h; in data set [2], greater than 72 h. In addition, the inhibition constant Ki in data set [3] was determined as 7.05 nM.
